According to article PMC3961306, “Comparison of the Cancer Gene Targeting and Biochemical Selectivities of All Targeted Kinase Inhibitors Approved for Clinical Use” (PLoS ONE, 2014):

Experiments:
Assay in all cases: Kinase profiling in a biochemical assay panel (mobility shift assays and ELISA), %-inhibition at 1 μM; selectivity entropy
[1] = biological target: T1, panel of more than 300 wild-type and mutant kinases (313 kinase panel) (Homo sapiens, UniProt O14920); conditions: kinase IKKβ; compound at 1 μM
T1 sequence (O14920 1-756): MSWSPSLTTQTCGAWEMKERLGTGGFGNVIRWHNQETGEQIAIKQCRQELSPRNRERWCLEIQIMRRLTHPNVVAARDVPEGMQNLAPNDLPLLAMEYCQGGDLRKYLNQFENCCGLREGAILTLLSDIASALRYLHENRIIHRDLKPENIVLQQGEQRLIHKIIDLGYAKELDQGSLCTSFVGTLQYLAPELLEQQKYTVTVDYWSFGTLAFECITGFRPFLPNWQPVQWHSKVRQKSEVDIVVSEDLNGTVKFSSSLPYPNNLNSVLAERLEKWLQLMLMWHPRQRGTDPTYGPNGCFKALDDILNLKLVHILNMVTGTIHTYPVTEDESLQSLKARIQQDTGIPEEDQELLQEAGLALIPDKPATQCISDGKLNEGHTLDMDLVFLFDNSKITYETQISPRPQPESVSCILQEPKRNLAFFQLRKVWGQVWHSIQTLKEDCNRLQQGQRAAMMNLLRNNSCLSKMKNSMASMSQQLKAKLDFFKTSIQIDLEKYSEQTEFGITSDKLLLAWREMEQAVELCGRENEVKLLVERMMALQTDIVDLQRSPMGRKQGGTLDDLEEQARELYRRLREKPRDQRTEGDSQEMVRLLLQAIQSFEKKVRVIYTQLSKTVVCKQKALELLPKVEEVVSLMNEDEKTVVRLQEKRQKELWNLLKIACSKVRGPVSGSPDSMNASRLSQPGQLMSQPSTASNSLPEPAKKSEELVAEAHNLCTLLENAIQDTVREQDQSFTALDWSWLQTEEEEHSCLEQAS

[2] = biological target: T2, panel of more than 300 wild-type and mutant kinases (313 kinase panel) (Homo sapiens, UniProt Q9BZL6); conditions: kinase PKD2; 1 μM
T2 sequence (Q9BZL6 1-878): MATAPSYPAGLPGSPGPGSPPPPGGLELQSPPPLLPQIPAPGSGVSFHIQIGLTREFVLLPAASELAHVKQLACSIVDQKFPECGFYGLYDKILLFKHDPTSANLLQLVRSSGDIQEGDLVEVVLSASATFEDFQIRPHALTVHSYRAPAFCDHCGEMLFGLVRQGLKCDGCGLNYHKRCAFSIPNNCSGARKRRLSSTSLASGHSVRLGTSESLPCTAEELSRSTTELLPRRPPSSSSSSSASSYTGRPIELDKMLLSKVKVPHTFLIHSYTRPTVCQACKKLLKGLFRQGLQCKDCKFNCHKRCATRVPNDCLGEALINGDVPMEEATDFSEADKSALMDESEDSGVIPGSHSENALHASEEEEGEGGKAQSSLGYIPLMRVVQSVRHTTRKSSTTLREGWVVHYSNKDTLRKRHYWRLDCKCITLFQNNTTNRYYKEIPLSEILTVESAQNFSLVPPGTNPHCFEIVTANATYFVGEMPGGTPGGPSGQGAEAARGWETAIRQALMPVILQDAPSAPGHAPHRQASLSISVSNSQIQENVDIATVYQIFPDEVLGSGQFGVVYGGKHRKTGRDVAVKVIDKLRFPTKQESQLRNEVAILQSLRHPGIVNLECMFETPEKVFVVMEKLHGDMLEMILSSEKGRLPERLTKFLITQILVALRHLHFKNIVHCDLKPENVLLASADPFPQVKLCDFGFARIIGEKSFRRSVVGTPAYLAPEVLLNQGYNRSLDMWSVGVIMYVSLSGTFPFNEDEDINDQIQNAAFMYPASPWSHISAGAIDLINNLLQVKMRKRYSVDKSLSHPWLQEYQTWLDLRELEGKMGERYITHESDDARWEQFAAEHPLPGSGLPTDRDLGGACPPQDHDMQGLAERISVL

[3] = biological target: panel of more than 300 wild-type and mutant kinases (313 kinase panel) (Homo sapiens, UniProt P07949, G691S); conditions: kinase RET(G691S); 1 μM
[4] = biological target: T3, panel of more than 300 wild-type and mutant kinases (313 kinase panel) (Homo sapiens, UniProt Q14164); conditions: kinase IKKε; compound at 1 μM
T3 sequence (Q14164 1-716): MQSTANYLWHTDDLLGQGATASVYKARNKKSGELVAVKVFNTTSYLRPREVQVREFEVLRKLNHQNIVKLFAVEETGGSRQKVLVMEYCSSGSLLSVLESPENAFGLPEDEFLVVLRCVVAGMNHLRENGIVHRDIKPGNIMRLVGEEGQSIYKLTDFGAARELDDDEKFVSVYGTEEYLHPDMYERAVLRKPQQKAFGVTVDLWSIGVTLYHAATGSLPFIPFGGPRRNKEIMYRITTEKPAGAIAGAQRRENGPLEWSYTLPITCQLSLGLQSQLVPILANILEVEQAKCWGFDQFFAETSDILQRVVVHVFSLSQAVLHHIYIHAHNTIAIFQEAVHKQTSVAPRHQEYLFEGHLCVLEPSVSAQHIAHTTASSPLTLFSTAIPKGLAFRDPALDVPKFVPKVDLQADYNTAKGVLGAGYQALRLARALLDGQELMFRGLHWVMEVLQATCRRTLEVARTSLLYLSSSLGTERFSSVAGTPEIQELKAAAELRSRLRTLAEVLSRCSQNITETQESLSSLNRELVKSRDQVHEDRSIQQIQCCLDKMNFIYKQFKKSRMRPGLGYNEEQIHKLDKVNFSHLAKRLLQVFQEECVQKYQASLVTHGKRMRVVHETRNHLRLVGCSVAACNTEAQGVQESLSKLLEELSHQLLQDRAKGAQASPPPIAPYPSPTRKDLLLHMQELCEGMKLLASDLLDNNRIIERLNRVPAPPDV

[5] = biological target: panel of more than 300 wild-type and mutant kinases (313 kinase panel) (Homo sapiens, UniProt P11362); conditions: kinase FGFR1; compound at 1 μM
[6] = biological target: panel of more than 300 wild-type and mutant kinases (313 kinase panel) (Homo sapiens, UniProt Q13555); conditions: kinase CaMK2γ; 1 μM compound

Q: For `CO[C@H]1C[C@@H]2CC[C@@H](C)[C@@](O)(O2)C(=O)C(=O)N2CCCC[C@H]2C(=O)O[C@H]([C@H](C)C[C@@H]2CC[C@@H](OC(=O)C(C)(CO)CO)[C@H](OC)C2)CC(=O)[C@H](C)/C=C(\C)[C@@H](O)[C@@H](OC)C(=O)[C@H](C)C[C@H](C)/C=C/C=C/C=C/1C` [temsirolimus], which “%-inhibition of IKKβ” value [1] is on record?
A: -4.44%

Q: What about the “%-inhibition of PKD2” value [2] of the same compound?
A: -16%

Q: What about the “%-inhibition of RET(G691S)” value [3] of the same compound?
A: -6%

Q: And the “%-inhibition of IKKε” value [4]?
A: -11%

Q: What about the “%-inhibition of FGFR1” value [5] of the same compound?
A: -6.47%

Q: What about the “%-inhibition, CaMK2γ” value [6] of the same compound?
A: -14%
